Experimental data reported in patent publication US20250302869A1, “USE OF INHALED NITRIC OXIDE (INO) FOR TREATING PATIENTS WITH PULMONARY HY[…] SARCOIDOSIS (PH-SARC)” (Mallinckrodt Pharmaceuticals Ireland Limited, priority 2022, published 2025).

Columns and labels:
[1] = tested on: patients with pulmonary hypertension associated with sarcoidosis (PH-SARC); assay: Safety and tolerability in the acute iNO dose escalation study; assay type: in vivo, human
Protocol: (§1) Patients were administered acute escalating doses of pulsatile iNO via an INOpulse device starting at 30 mcg/kg ideal body weight/hr (iNO30) and increasing up to 125 mcg/kg ideal body weight/hr (iNO125) to assess the impact of each dose level on hemodynamic parameters. Patients were treated with iNO for 10 minutes per dose with a 10-minute washout between doses.
(§2) During the Treatment Visit of Part 1 of the study, subjects were admitted to the cardiac catheterization suite/ICU/CCU and a Swan Ganz Catheter was inserted, and subjects were monitored during acute exposure to iNO at 30, 45, 75, 125 mcg/kg IBW/hr. Hemodynamic changes were monitored during this part of the study. The primary endpoint for Part 1 of the study was to assess the change in mean pulmonary artery pressure (mPAP), pulmonary capillary wedge pressure (PCWP), cardiac output (CO) and pulmonary vascular resistance (PVR) on iNO 30, 45, 75, 125 mcg/kg IBW/hr compared to baseline. The Safety Endpoint includes incidence and severity of treatment emergent adverse events (AEs), including those related to device deficiency, symptoms that may be due to rebound associated with acute withdrawal of iNO: systemic arterial oxygen desaturation, hypoxemia, bradycardia, tachycardia, systemic hypotension, shortness of breath, near-syncope, and syncope, and change in oxygen saturation and vital signs.

[2] = tested on: patients with pulmonary hypertension associated with sarcoidosis (PH-SARC); assay: Acute iNO dose escalation study, right heart catheterization hemodynamics (Phase 2, Part 1); assay type: in vivo, human; settings: for PVR change from baseline: pulsed, 10 min, baseline median 329.4; for PVR change from baseline / CO percent change from baseline / PCWP percent change from baseline / PVR percent change from baseline / mPAP percent change from baseline / CO change from baseline / PCWP change from baseline / mPAP change from baseline: median (IQR); for CO change from baseline: baseline median 5.9; for PCWP change from baseline: baseline median 13.5; for mPAP change from baseline: baseline median 37.2
From the text: Patients with sarcoidosis may develop pulmonary hypertension (PH) which is associated with an impaired quality of life and limitations on activities of daily living. The Phase 2 trial, was designed to determine the safety and clinical efficacy of pulsed iNO, a potent and well-established vasodilator, on sarcoidosis-associated with PH patients, as well as to evaluate the safe and effective dose of iNO in subjects on long term oxygen therapy (LTOT) with possible or definite pulmonary hypertension associated with sarcoidosis.
Sarcoidosis patients with PH on prior right heart catherization (RHC) or on echocardiography were enrolled in a two-part open label study. Patients underwent RHC, to establish baseline hemodynamics including mean pulmonary arterial pressure (mPAP), cardiac output (CO), pulmonary wedge pressure (PCWP) with derivation of pulmonary vascular resistance (PVR).
as §1
Each dose level was followed by a washout period. All hemodynamic wave forms were reviewed by a blinded hemodynamic core lab for determination of end-exhalation PAP and PCWP. After the acute vasodilator study, subjects were eligible to participate in a long-term open label extension study at the dose of iNO found to be most beneficial by the RHC measurements, as determined by the investigator.
as §2
The changes in hemodynamics were determined for absolute change (as shown in FIGS. 2A-2D) and percent change (as shown in FIGS. 2E-2H) from baseline in PVR, mPAP, CO and PCWP. The analysis depicted illustrates the change from baseline (box & whisker plot provides median, IQR, and min/max). Statistical analysis based on Wilcoxon […] was assessed between baseline and each dose as well as each dose and each prior dose and no correction was conducted for multiplicity.

Q: What does the source list for `[N]=O` [iNO, nitric oxide]?
A: tolerability ([1]; across all the doses iNO30 to iNO125): well-tolerated; adverse events or serious adverse events related to iNO ([1]; acute doses iNO30 to iNO125, 8 patients): No adverse events or serious adverse events related to iNO were reported; median mPAP reduction from baseline across the doses ([2]; across the doses of iNO30 to iNO125, baseline median mPAP 37.2 mmHg): 6-10%; patients demonstrating decreases in mPAP and PVR ([2]; across the doses of iNO from iNO30 to iNO125, blinded core lab, 8 patients): all 8 patients demonstrated decreases in mPAP and PVR; PCWP across all doses ([2]; all doses iNO30 to iNO125): remained stable; cardiac output (CO) across all doses ([2]; all doses iNO30 to iNO125): remained stable; PVR change from baseline ([2]; iNO30 (30 mcg/kg IBW/hr)): −19.2 (39.0) dyne*sec*cm-5; CO percent change from baseline ([2]; iNO30 (30 mcg/kg IBW/hr)): −2.5% (11.2); PCWP percent change from baseline ([2]; iNO30 (30 mcg/kg IBW/hr)): −4.1% (29.1%); PVR percent change from baseline ([2]; iNO30 (30 mcg/kg IBW/hr)): −7.0% (10.6%); mPAP percent change from baseline ([2]; iNO30 (30 mcg/kg IBW/hr)): −7.1% (10.0%); CO change from baseline ([2]; iNO30 (30 mcg/kg IBW/hr)): −0.1 (0.6) L/min; PCWP change from baseline ([2]; iNO30 (30 mcg/kg IBW/hr)): −1.0 (4.3) mmHg; mPAP change from baseline ([2]; iNO30 (30 mcg/kg IBW/hr)): −2.7 (2.8) mmHg; PVR change from baseline ([2]; iNO45 (45 mcg/kg IBW/hr)): −48.4 (84.6) dyne*sec*cm-5; CO percent change from baseline ([2]; iNO45 (45 mcg/kg IBW/hr)): 1.0% (6.5%); PCWP percent change from baseline ([2]; iNO45 (45 mcg/kg IBW/hr)): 0.0% (20.5%); mPAP percent change from baseline ([2]; iNO45 (45 mcg/kg IBW/hr)): −10.6% (15.8%); CO change from baseline ([2]; iNO45 (45 mcg/kg IBW/hr)): 0.0 (0.3) L/min; PCWP change from baseline ([2]; iNO45 (45 mcg/kg IBW/hr)): 0.0 (2.5) mmHg; mPAP change from baseline ([2]; iNO45 (45 mcg/kg IBW/hr)): −4.0 (5.2) mmHg; median decrease of PVR from baseline ([2]; iNO45 dose, range −54% to +22%, baseline median PVR 329 dyne*sec*cm-5): 20%; PVR change from baseline ([2]; iNO75 (75 mcg/kg IBW/hr)): −68.0 (92.7) dyne*sec*cm-5; CO percent change from baseline ([2]; iNO75 (75 mcg/kg IBW/hr)): 0.1% (6.1%); PCWP percent change from baseline ([2]; iNO75 (75 mcg/kg IBW/hr)): 10.6% (29.5%); PVR percent change from baseline ([2]; iNO75 (75 mcg/kg IBW/hr)): −15.3% (37.7%); mPAP percent change from baseline ([2]; iNO75 (75 mcg/kg IBW/hr)): −6.3% (13.2%); CO change from baseline ([2]; iNO75 (75 mcg/kg IBW/hr)): 0.0 (0.4) L/min; PCWP change from baseline ([2]; iNO75 (75 mcg/kg IBW/hr)): 1.5 (4.3) mmHg; mPAP change from baseline ([2]; iNO75 (75 mcg/kg IBW/hr)): −2.3 (3.9) mmHg; PVR change from baseline ([2]; iNO125 (125 mcg/kg IBW/hr)): −85.8 (67.1) dyne*sec*cm-5; CO percent change from baseline ([2]; iNO125 (125 mcg/kg IBW/hr)): 4.2% (14.6%); PCWP percent change from baseline ([2]; iNO125 (125 mcg/kg IBW/hr)): 0.0% (30.7%); PVR percent change from baseline ([2]; iNO125 (125 mcg/kg IBW/hr)): −28.7% (20.8%); mPAP percent change from baseline ([2]; iNO125 (125 mcg/kg IBW/hr)): −6.4% (11.0%); CO change from baseline ([2]; iNO125 (125 mcg/kg IBW/hr)): 0.2 (0.8) L/min; PCWP change from baseline ([2]; iNO125 (125 mcg/kg IBW/hr)): 0.0 (4.0) mmHg; mPAP change from baseline ([2]; iNO125 (125 mcg/kg IBW/hr)): −3.0 (3.5) mmHg; median decrease of PVR from baseline ([2]; iNO125 dose, range −43% to −5%, p=0.02 vs. baseline and prior dose): 29%
